Measurements from patent publication US20240175039A1, “ENGINEERING PROBIOTIC FOR DEGRADING URIC ACID, AND CONSTRUCTION METHOD THEREFOR AND USE THEREOF” (SHANDONG UNIVERSITY, priority 2022, published 2024).

Legend:
[1] = system: Bacillus subtilis PucLM (complete PucL co-expressed with PucM, wild type; PucM SEQ ID NO: 2); assay: UA degradation kinetics (Km, Vmax), cell extract of EcN::pMCS2-Ptrc-pucLM; assay type: biochemical
Description: (§1) The pucL (Gene ID: 936669) and pucM (Gene ID: 937977) genes from Bacillus subtilis were codon-optimized and synthesized by Beijing Genomics Institute (BGI, Beijing). Asp-214 and Gln-438 of PucL were mutated to Val and Arg, respectively. The mutated pucL was named as pucL^M, and pucL^M was codon-optimized and synthesized by Beijing Genomics Institute (BGI, Beijing). The vhb gene (Protein ID: WP_019959060.1) from Vitreoscilla sp. C1 was codon-optimized and synthesized by Beijing Genomics Institute (BGI, Beijing). The ygfU (Gene ID: 949017) and the katG (Gene ID: 948431) genes were PCR amplified from E. coli MG1655 genomic DNA.
(§2) (1) UA was measured in a buffer solution using a spectrophotometer by directly measuring the absorbance at 293 nm. Firstly, UA standard solutions of 0, 10 μM, 15 μM, 20 μM, 30 μM, 40 μM, 50 μM, 60 μM, and 70 μM were prepared to plot an UA concentration standard curve, obtaining a curve R2 of 0.9997. Subsequently, appropriate dilutions were performed for measurement, and UA concentration was determined.
The activity of PucL^T can be enhanced by the D44V and Q268R mutations. We directly mutated two sites in the complete PucL (PucLM) and co-expressed them with PucM in EcN (EcN::pMCS2-Ptrc-pucL^MM). Determined by using cell extracts, the Vmax of PucL^MM increased by approximately 1.8 times compared to PucLM. […] Due to the increase in Km, the UA degradation ability of the whole cell of EcN::pMCS2-Ptrc-pucL^MM was weakened when the concentration of UA was low (FIG. 2C).

[2] = biological target: T1, Bacillus subtilis PucL^MM (PucL variant PucL^M, Asp-214 to Val and Gln-438 to Arg (D44V and Q268R in PucL^T), SEQ ID NO: 1, co-expressed with PucM, SEQ ID NO: 2 (Bacillus subtilis, UniProt O32141, D214V/Q438R)); assay: UA degradation kinetics (Km, Vmax), cell extract of EcN::pMCS2-Ptrc-pucL^MM; assay type: biochemical; details: cell extracts
T1 sequence (O32141 1-494 D214V/Q438R): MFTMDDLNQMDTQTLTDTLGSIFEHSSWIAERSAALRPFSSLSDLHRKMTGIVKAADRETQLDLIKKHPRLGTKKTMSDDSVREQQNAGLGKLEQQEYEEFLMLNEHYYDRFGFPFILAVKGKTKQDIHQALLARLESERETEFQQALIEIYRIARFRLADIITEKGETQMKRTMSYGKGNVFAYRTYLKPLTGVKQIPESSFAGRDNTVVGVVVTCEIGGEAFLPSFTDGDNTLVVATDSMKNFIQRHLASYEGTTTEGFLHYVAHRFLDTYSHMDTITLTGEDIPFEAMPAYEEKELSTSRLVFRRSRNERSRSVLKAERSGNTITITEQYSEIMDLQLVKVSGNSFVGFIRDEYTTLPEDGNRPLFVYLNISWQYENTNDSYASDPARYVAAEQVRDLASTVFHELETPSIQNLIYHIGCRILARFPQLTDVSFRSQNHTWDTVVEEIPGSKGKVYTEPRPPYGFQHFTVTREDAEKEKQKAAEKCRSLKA
T1 sequence (O32142 1-114 partner): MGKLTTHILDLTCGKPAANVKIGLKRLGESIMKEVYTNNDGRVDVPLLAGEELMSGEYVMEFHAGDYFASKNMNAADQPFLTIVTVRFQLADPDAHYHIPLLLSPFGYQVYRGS
Description: (§3) The urate oxidase gene is specifically PucL^M and PucM, whose nucleotide sequences are shown as SEQ ID NO: 1 and SEQ ID NO: 2, respectively; they act together, and in the present invention, they are named PucL^MM.
as §1
(§4) (1) UA was measured in a buffer solution using a spectrophotometer by directly measuring the absorbance at 293 nm. […] Subsequently, appropriate dilutions were performed for measurement, and UA concentration was determined.
(§5) The activity of PucL^T can be enhanced by the D44V and Q268R mutations. […] Determined by using cell extracts, the Vmax of PucL^MM increased by approximately 1.8 times compared to PucLM. […]

[3] = substrate: O=c1[nH]c(=O)c2[nH]c(=O)[nH]c2[nH]1; assay: as above; assay type: biochemical, Bacillus subtilis; details: other: cell extract, recombinant EcN::pMCS2-Ptrc-pucL^MM
Description: as §3, §1, §4, §5

[4] = substrate: O=c1[nH]c(=O)c2[nH]c(=O)[nH]c2[nH]1; assay: UA degradation kinetics (Km, Vmax), cell extract of EcN::pMCS2-Ptrc-pucL^T; assay type: biochemical, Bacillus subtilis; details: other: cell extract, recombinant EcN::pMCS2-Ptrc-pucL^T
Description: as §1, §2
The UriC domain of PucL (PucL^T) catalyzes step 1 in the UA degradation (FIG. 1), and steps 2 and 3 can occur spontaneously. […]
as §5

[5] = cell extract, recombinant EcN::pMCS2-Ptrc-pucLM

Question: What does the source list for O=c1[nH]c(=O)c2[nH]c(=O)[nH]c2[nH]1 [UA, uric acid]?
Answer: Km [1, 5]: 17.2 µM; Vmax [1, 5]: 13.88 µM/mg/min; Km of PucLM compared with PucL^T ([1]; cell extracts): significantly reduced; Vmax of PucLM compared with PucL^T ([1]; cell extracts): similar; Km increase of PucL^MM compared to PucLM [2]: approximately 2.0 times; Vmax increase of PucL^MM compared to PucLM [2]: approximately 1.8 times

B1: Bacillus subtilis PucL^MM (PucL variant PucL^M, Asp-214 to Val and Gln-438 to Arg (D44V and Q268R in PucL^T), SEQ ID NO: 1, co-expressed with PucM, SEQ ID NO: … (protein)
chain: T1 sequence (O32141 1-494 D214V/Q438R)
Question: What does the source list for B1?
Answer: Km [3]: 52.54 µM; Vmax [3]: 38.6 µM/min/mg

B2: Bacillus subtilis PucL^T (UriC domain of PucL, urate oxidase) (Bacillus subtilis subsp. subtilis str. 168) (protein)
chain: MKRTMSYGKGNVFAYRTYLKPLTGVKQIPESSFAGRDNTVVGVDVTCEIGGEAFLPSFTDGDNTLVVATDSMKNFIQRHLASYEGTTTEGFLHYVAHRFLDTYSHMDTITLTGEDIPFEAMPAYEEKELSTSRLVFRRSRNERSRSVLKAERSGNTITITEQYSEIMDLQLVKVSGNSFVGFIRDEYTTLPEDGNRPLFVYLNISWQYENTNDSYASDPARYVAAEQVRDLASTVFHELETPSIQNLIYHIGCRILARFPQLTDVSFQSQNHTWDTVVEEIPGSKGKVYTEPRPPYGFQHFTVTREDAEKEKQKAAEKCRSLKA
Question: What does the source list for B2?
Answer: Km [4]: 61.03 µM; Vmax [4]: 12.3 µM/min/mg
